Test results as given in the supplement of paper PMC9663587.

How the values were obtained:
Cisplatin = compound: N.N.Cl[Pt]Cl [Cisplatin]
Bleomycin = compound: CC1=C(N=C(N=C1N)[C@H](CC(=O)N)NC[C@@H](C(=O)N)N)C(=O)N[C@@H]([C@H](C2=CN=CN2)OC3C(C(C(C(O3)CO)O)O)OC4C(C(C(C(O4)CO)O)OC(=O)N)O)C(=O)N[C@H](C)[C@H]([C@H](C)C(=O)N[C@@H]([C@@H](C)O)C(=O)NCCC5=NC(=CS5)C6=NC(=CS6)C(=O)NCCC[S+](C)C)O [Bleomycin]; details: main component drawn
Etoposide = compound: COc1cc([C@@H]2c3cc4c(cc3[C@@H](O[C@@H]3O[C@@H]5CO[C@@H](C)O[C@H]5[C@H](O)[C@H]3O)[C@H]3COC(=O)[C@H]23)OCO4)cc(OC)c1O [Etoposide]
Topotecan = compound: CC[C@@]1(O)C(=O)OCc2c1cc1n(c2=O)Cc2cc3c(CN(C)C)c(O)ccc3nc2-1 [Topotecan]
[1] = compound: CC(=O)c1c(C)c2cnc(Nc3ccc(N4CCNCC4)cn3)nc2n(C2CCCC2)c1=O; assay: GR value, 72 h; higher = faster growth (1 = untreated, <0 = killing);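 further: breast cancer and non-malignant breast epithelial lines, nine half-log doses, viable cells counted by Hoechst and LIVE/DEAD dye imaging versus time-zero plates and DMSO controls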
Neratinib/HKI272 = compound: CCOc1cc2ncc(C#N)c(Nc3ccc(OCc4ccccn4)c(Cl)c3)c2cc1NC(=O)/C=C/CN(C)C [Neratinib/HKI272]; assay: as above
Everolimus = compound: CO[C@H]1C[C@@H]2CC[C@@H](C)[C@@](O)(O2)C(=O)C(=O)N2CCCC[C@H]2C(=O)O[C@H]([C@H](C)C[C@@H]2CC[C@@H](OCCO)[C@H](OC)C2)CC(=O)[C@H](C)/C=C(\C)[C@@H](O)[C@@H](OC)C(=O)[C@H](C)C[C@H](C)/C=C/C=C/C=C/1C [Everolimus]
YKL-5-124 = compound: C=CC(=O)Nc1ccc(C(=O)Nc2[nH]nc3c2CN(C(=O)N[C@H](CN(C)C)c2ccccc2)C3(C)C)cc1 [YKL-5-124]
[2] = compound: COc1cccc(OCCCN)c1-c1cc(Nc2cnc(C#N)cn2)n[nH]1
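Wherever GR50, 72 h is given: breast cancer and non-malignant breast epithelial cell lines, Deep Dye Drop or Dye Drop imaging, nine half-log doses, GR normalized to time-zero plates and DMSO-only controls.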

| Cell Line | GR50, 72 h (Cisplatin) | GR50, 72 h (Bleomycin) | GR50, 72 h (Etoposide) | GR50, 72 h (Topotecan) | GR value ([1]; 0.0003162 µM) | GR value ([1]; 0.001 µM) | GR value ([1]; 0.003162 µM) | GR value ([1]; 0.01 µM) | GR value ([1]; 0.03162 µM) | GR value ([1]; 0.1 µM) | GR value ([1]; 0.3162 µM) | GR value ([1]; 1 µM) | GR value ([1]; 3.162 µM) | GR value (Neratinib/HKI272; 0.0003162 µM) | GR value (Neratinib/HKI272; 0.001 µM) | GR value (Neratinib/HKI272; 0.003162 µM) | GR value (Neratinib/HKI272; 0.01 µM) | GR value (Neratinib/HKI272; 0.03162 µM) | GR value (Neratinib/HKI272; 0.1 µM) | GR value (Neratinib/HKI272; 0.3162 µM) | GR value (Neratinib/HKI272; 1 µM) | GR value (Neratinib/HKI272; 3.162 µM) | GR50, 72 h (Everolimus) | GR50, 72 h (YKL-5-124) | GR50, 72 h [2] |
| --- | --- | --- | --- | --- | --- | --- | --- | --- | --- | --- | --- | --- | --- | --- | --- | --- | --- | --- | --- | --- | --- | --- | --- | --- | --- |
| HCC1500 | 3.45 µM | 2.28 µM | 1.43 µM | 0.00546 µM | 1.03 GR | 1.16 GR | 1.19 GR | 1.11 GR | 0.838 GR | 0.676 GR | 0.581 GR | 0.709 GR | 0.592 GR | 1.03 GR | 1.13 GR | 1.01 GR | 1.02 GR | 0.915 GR | 0.889 GR | 0.793 GR | 0.416 GR | -0.245 GR |  |  |  |
| MGH312 |  |  |  |  | 1.2 GR | 1.09 GR | 1.2 GR | 1.04 GR | 1.09 GR | 1.21 GR | 1.11 GR | 1.18 GR | 1.04 GR | 0.953 GR | 1.02 GR | 0.997 GR | 0.787 GR | 0.606 GR | 0.489 GR | 0.502 GR | 0.238 GR | -0.252 GR | < 0.001 µM | 0.00434 µM |  |
| SUM52PE |  |  |  |  | 1.1 GR | 1.06 GR | 1.01 GR | 0.97 GR | 0.863 GR | 0.695 GR | 0.607 GR | 0.475 GR | 0.348 GR | 1.01 GR | 0.991 GR | 1.01 GR | 1.06 GR | 1.01 GR | 1.01 GR | 0.959 GR | 0.876 GR | 0.503 GR | > 10 µM | 0.0453 µM | 0.00264 µM |
| HCC1806 | 0.833 µM | 8.98 µM | 0.0964 µM | 0.00527 µM | 1.07 GR | 1.02 GR | 0.939 GR | 0.965 GR | 0.851 GR | 0.695 GR | 0.739 GR | 0.625 GR | 0.771 GR | 1.08 GR | 1.06 GR | 1.04 GR | 0.99 GR | 0.881 GR | 0.811 GR | 0.675 GR | 0.546 GR | -0.0945 GR | > 10 µM | < 0.001 µM |  |
| PDX1328 | 0.784 µM | 4 µM | 0.805 µM | 0.00592 µM | 1.04 GR | 1.1 GR | 1.06 GR | 0.938 GR | 0.751 GR | 0.557 GR | 0.518 GR | 0.414 GR | 0.399 GR | 1.02 GR | 1.02 GR | 1.01 GR | 0.898 GR | 0.762 GR | 0.675 GR | 0.537 GR | 0.223 GR | 0.0191 GR |  |  | 0.000974 µM |
| SUM44PE |  |  |  |  | 1.09 GR | 0.993 GR | 1.03 GR | 1.04 GR | 0.784 GR | 0.588 GR | 0.461 GR | 0.514 GR | 0.397 GR | 0.966 GR | 0.921 GR | 0.764 GR | 0.465 GR | 0.417 GR | 0.312 GR | 0.209 GR | 0.0292 GR | -0.218 GR | < 0.001 µM |  | 0.000342 µM |
| HCC202 |  |  |  |  | 0.895 GR | 1 GR | 0.904 GR | 0.913 GR | 0.889 GR | 0.798 GR | 0.851 GR | 0.753 GR | 0.693 GR | 1.05 GR | 0.953 GR | 0.901 GR | 0.709 GR | 0.491 GR | 0.325 GR | 0.214 GR | 0.194 GR | 0.0934 GR |  |  | 0.00549 µM |
| MDAMB175VII |  |  |  |  | 0.695 GR | 0.582 GR | 0.689 GR | 0.453 GR | 0.156 GR | -0.0684 GR | -0.0381 GR | -0.0455 GR | -0.158 GR | 0.753 GR | 0.53 GR | 0.138 GR | -0.551 GR | -0.848 GR | -0.905 GR | -0.932 GR | -0.949 GR | -0.983 GR | < 0.001 µM |  | 0.0266 µM |
| HCC1428 | 0.901 µM | 4.26 µM | 0.214 µM | 0.0106 µM | 1.05 GR | 1.07 GR | 1.14 GR | 0.874 GR | 0.729 GR | 0.434 GR | 0.313 GR | 0.247 GR | 0.268 GR | 1.08 GR | 1.03 GR | 1.05 GR | 0.992 GR | 1.1 GR | 0.964 GR | 0.922 GR | 0.656 GR | -0.0337 GR | 0.031 µM |  |  |
| EVSAT |  |  |  |  | 1.02 GR | 1 GR | 0.994 GR | 0.974 GR | 0.863 GR | 0.792 GR | 0.752 GR | 0.671 GR | 0.637 GR | 0.99 GR | 1.02 GR | 1.01 GR | 0.991 GR | 0.978 GR | 0.909 GR | 0.895 GR | 0.822 GR | 0.676 GR |  | < 0.001 µM |  |
| HS578T | 1.54 µM | 0.252 µM | 0.413 µM | 0.00498 µM | 1.07 GR | 0.988 GR | 0.928 GR | 0.764 GR | 0.666 GR | 0.569 GR | 0.481 GR | 0.423 GR | 0.302 GR | 1.06 GR | 1 GR | 1.05 GR | 0.98 GR | 1 GR | 0.888 GR | 0.613 GR | 0.427 GR | -0.155 GR | 0.00554 µM | < 0.001 µM |  |
| T47D | 1.57 µM | 0.199 µM | 0.0417 µM | 0.00523 µM | 1.07 GR | 1.08 GR | 1.04 GR | 0.782 GR | 0.478 GR | 0.203 GR | 0.177 GR | 0.122 GR | 0.132 GR | 1.02 GR | 1.01 GR | 0.94 GR | 0.899 GR | 0.749 GR | 0.65 GR | 0.584 GR | 0.382 GR | 0.215 GR | < 0.001 µM | < 0.001 µM |  |
| SUM185PE |  |  |  |  | 1 GR | 1.03 GR | 0.956 GR | 0.996 GR | 0.96 GR | 0.923 GR | 0.781 GR | 0.86 GR | 0.754 GR | 0.996 GR | 1.05 GR | 0.979 GR | 0.808 GR | 0.839 GR | 0.681 GR | 0.595 GR | 0.476 GR | 0.267 GR | > 10 µM | 0.0819 µM |  |
| HCC1954 | 1.25 µM | 0.0438 µM | 0.171 µM | 0.0119 µM | 1.14 GR | 1.02 GR | 1.07 GR | 0.905 GR | 0.863 GR | 0.733 GR | 0.611 GR | 0.57 GR | 0.523 GR | 1.04 GR | 1.05 GR | 0.938 GR | 0.859 GR | 0.533 GR | 0.389 GR | 0.27 GR | 0.119 GR | -0.0858 GR |  | < 0.001 µM |  |
